# Experimental data as given in the OPERA property sets (Mansouri et al. 2018).
row,Structure (SMILES),logP
1,COc1ccc(-c2cc(=O)c3c(O)cc(O)cc3o2)cc1O,3.1
2,O=c1cc(-c2ccc(O)c(O)c2)oc2cc(O)cc(O)c12,2.53
3,O=c1cc(-c2ccc(O)c(O)c2)oc2cccc(O)c12,3.31
4,O=C1C[C@@H](c2ccc(O)cc2)Oc2cc(O)cc(O)c21,2.52
5,O=c1cc(-c2ccccc2)oc2cccc(O)c12,4.3
6,C[C@@H]1O[C@@H](O[C@H]2[C@H](Oc3cc(O)c4c(c3)O[C@H](c3ccc(O)cc3)CC4=O)O[C@H](CO)[C@@H](O)[C@@H]2O)[C@H](O)[C@H](O)[C@H]1O,-0.44
7,COc1ccc(-c2cc(=O)c3c(O)cc(O[C@@H]4O[C@H](CO[C@@H]5O[C@@H](C)[C@H](O)[C@@H](O)[C@H]5O)[C@@H](O)[C@H](O)[C@H]4O)cc3o2)cc1O,0.14

# Results, then the molecule that gave them:
row,logP,Structure (SMILES)
1,2.6,COc1ccc([C@@H]2CC(=O)c3c(O)cc(O)cc3O2)cc1O
2,3.52,O=c1cc(-c2ccccc2)oc2cc(O)cc(O)c12
3,2.02,O=C1CC(c2ccc(O)c(O)c2)Oc2cc(O)cc(O)c21 (configuration not stated)
4,3.02,O=c1cc(-c2ccc(O)cc2)oc2cc(O)cc(O)c12
5,0.95,O=C1c2c(O)cc(O)cc2O[C@H](c2ccc(O)c(O)c2)[C@H]1O
6,0.51,Oc1cc(O)c2c(c1)O[C@H](c1ccc(O)c(O)c1)[C@@H](O)C2
7,2.61,O=C1CC(c2cccc(O)c2)Oc2cc(O)cc(O)c21 (configuration not stated)
8,2.81,O=C1CC(c2ccc(O)c(O)c2)Oc2cccc(O)c21 (configuration not stated)
9,1.94,O=C1C[C@@H](c2ccc(O)c(O)c2)Oc2cc(O)ccc21
10,0.87,O=C1c2ccc(O)cc2OC(c2ccc(O)c(O)c2)C1O (configuration not stated)
